In ChEMBL document CHEMBL5506059, “Cyanomethylquinolones as a New Class of Potential Multitargeting Broad-Spectrum Antibacterial Agents” (J Med Chem, 2024):
In brackets after ≈: the same amount, converted by molar mass. Activity calls are given as the source filed them. The rule behind the calls is not given here.

Legend:
[1] = system: Enterococcus faecalis; experiment: Antibacterial activity against vancomycin-resistant Enterococcus faecalis clinical isolate p1-2007225053 assessed as inhibition of bacterial growth incubated for 24 hrs; type: functional
[2] = system: Klebsiella pneumoniae; experiment: Antibacterial activity against Klebsiella pneumoniae clinical isolate assessed as inhibition of bacterial growth incubated for 24 hrs; type: functional
[3] = system: Escherichia coli; experiment: Antibacterial activity against Escherichia coli clinical isolate assessed as inhibition of bacterial growth incubated for 24 hrs; type: functional
[4] = system: Staphylococcus aureus; experiment: Antibacterial activity against Staphylococcus aureus ATCC 12600 assessed as inhibition of bacterial growth incubated for 24 hrs; type: functional
[5] = system: Staphylococcus aureus; experiment: Antibacterial activity against Staphylococcus aureus ATCC 6538 assessed as inhibition of bacterial growth incubated for 24 hrs; type: functional
[6] = system: Streptococcus pyogenes; experiment: Antibacterial activity against Streptococcus pyogenes ATCC 19615 assessed as inhibition of bacterial growth incubated for 24 hrs; type: functional
[7] = system: Acinetobacter baumannii; experiment: Antibacterial activity against Acinetobacter baumannii clinical isolate assessed as inhibition of bacterial growth incubated for 24 hrs; type: functional
[8] = system: Pseudomonas aeruginosa; experiment: Antibacterial activity against Pseudomonas aeruginosa clinical isolate assessed as inhibition of bacterial growth incubated for 24 hrs; type: functional
[9] = system: Staphylococcus aureus; experiment: Antibacterial activity against Staphylococcus aureus ATCC 29213 assessed as inhibition of bacterial growth incubated for 24 hrs; type: functional
[10] = system: Pseudomonas aeruginosa; experiment: Resistance development in ciprofloxacin-treated Pseudomonas aeruginosa ATCC 27853 assessed as increase in MIC measured after 15th generation; type: functional, organism-based
[11] = system: Staphylococcus aureus; experiment: Antibacterial activity against Staphylococcus aureus ATCC 25923 assessed as inhibition of bacterial growth incubated for 24 hrs; type: functional
[12] = system: Enterococcus faecium; experiment: Antibacterial activity against Enterococcus faecium ATCC 19434 assessed as inhibition of bacterial growth incubated for 24 hrs; type: functional
[13] = system: Escherichia coli; experiment: Antibacterial activity against Escherichia coli ATCC 25922 assessed as inhibition of bacterial growth incubated for 24 hrs; type: functional
[14] = system: Staphylococcus aureus; experiment: Resistance development in ciprofloxacin-treated methicillin resistant Staphylococcus aureus assessed as increase in MIC measured after 15th generation; type: functional, organism-based
[15] = system: Staphylococcus aureus; experiment: Antibacterial activity against methicillin-resistant Staphylococcus aureus ATCC 43300 assessed as inhibition of bacterial growth incubated for 24 hrs; type: functional
[16] = system: Staphylococcus aureus; experiment: Resistance development in ciprofloxacin-treated Staphylococcus aureus ATCC 6538 assessed as increase in MIC measured after 15th generation; type: functional, organism-based
[17] = system: Staphylococcus aureus; experiment: Antibacterial activity against Staphylococcus aureus clinical isolate assessed as inhibition of bacterial growth incubated for 24 hrs; type: functional
[18] = system: Pseudomonas aeruginosa; experiment: Antibacterial activity against Pseudomonas aeruginosa ATCC 27853 assessed as inhibition of bacterial growth incubated for 24 hrs; type: functional
[19] = system: Pseudomonas aeruginosa; experiment: Resistance development in ciprofloxacin-treated Pseudomonas aeruginosa assessed as increase in MIC measured after 15th generation; type: functional, organism-based
[20] = system: Streptococcus pneumoniae; experiment: Antibacterial activity against Streptococcus pneumoniae ATCC 6305 assessed as inhibition of bacterial growth incubated for 24 hrs; type: functional
[21] = system: Staphylococcus aureus; experiment: Antibacterial activity against Staphylococcus aureus CMCC(B)26001 assessed as inhibition of bacterial growth incubated for 24 hrs; type: functional
[22] = system: Staphylococcus epidermidis; experiment: Antibacterial activity against Staphylococcus epidermidis ATCC 12228 assessed as inhibition of bacterial growth incubated for 24 hrs; type: functional
[23] = system: Staphylococcus aureus; experiment: Antibacterial activity against methicillin resistant Staphylococcus aureus clinical isolate assessed as inhibition of bacterial growth incubated for 24 hrs; type: functional
[24] = system: Enterococcus faecalis; experiment: Antibacterial activity against Enterococcus faecalis clinical isolate assessed as inhibition of bacterial growth incubated for 24 hrs; type: functional
[25] = system: Enterococcus faecalis; experiment: Antibacterial activity against vancomycin-resistant Enterococcus faecalis clinical isolate p1-2007226001 assessed as inhibition of bacterial growth incubated for 24 hrs; type: functional
[26] = system: Staphylococcus aureus; experiment: Antibacterial activity against Staphylococcus aureus CMCC(B)26003 assessed as inhibition of bacterial growth incubated for 24 hrs; type: functional

CCn1cc(C(=O)O)c(=O)c2cc(F)c(N3CCNCC3)cc21 [NORFLOXACIN]
MIC [1]: 1 µg/mL (≈ 3.13 µM)
MIC [2]: 8 µg/mL (≈ 25.1 µM)
MIC [3]: 4 µg/mL (≈ 12.5 µM)
MIC [4]: 2 µg/mL (≈ 6.26 µM)
MIC [5]: 1 µg/mL (≈ 3.13 µM)
MIC [6]: 32 µg/mL (≈ 100 µM)
MIC [7]: 2 µg/mL (≈ 6.26 µM)
MIC [8]: 8 µg/mL (≈ 25.1 µM)
MIC [9]: 4 µg/mL (≈ 12.5 µM)
Activity [10]: Active
MIC [11]: 8 µg/mL (≈ 25.1 µM)
MIC [12]: 4 µg/mL (≈ 12.5 µM)
MIC [13]: 4 µg/mL (≈ 12.5 µM)
Activity [14]: Active
MIC [15]: 4 µg/mL (≈ 12.5 µM)
Activity [16]: Active
MIC [17]: 8 µg/mL (≈ 25.1 µM)
MIC [18]: 8 µg/mL (≈ 25.1 µM)
Activity [19]: Active
MIC [20]: 0.5 µg/mL (≈ 1.57 µM)
MIC [21]: 0.25 µg/mL (≈ 0.783 µM)
MIC [22]: 1 µg/mL (≈ 3.13 µM)
MIC [23]: 8 µg/mL (≈ 25.1 µM)
MIC [24]: 8 µg/mL (≈ 25.1 µM)
MIC [25]: 8 µg/mL (≈ 25.1 µM)
MIC [26]: 0.5 µg/mL (≈ 1.57 µM)
